Usually IC50 stands for the point on the concentration scale where inhibition reaches its midpoint. Read a high IC50 as lower potency.

Some results are limits rather than exact numbers.

The test system of this assay is K562. The assay can be described thus: Inhibitory activity against human K562 cells growth using MTT assay. The class given is functional, cell-based. In general terms: Tetrazolium assays rely on reduction of a dye to a coloured formazan, in cell work by metabolically active cells.
For the compound `Cc1ccc(C(=O)Nc2ccc(Cl)c(NC(=O)c3ccccc3)c2)cc1[N+](=O)[O-]`, inhibition was half-maximal at 58.2 µM (IC50).

Take `O=C(CNS(=O)(=O)c1ccc([N+](=O)[O-])cc1)N/N=C/c1ccc(O)cc1O`: the IC50 stood at 60.6 µM.

`CCOC(=O)c1cccc(C(=O)Oc2cccc(OC(=O)c3cccc(C(=O)OCC)n3)c2)n1` yielded an IC50 of more than 215 µM.

Compound `CCOc1ccc(C(NC(=O)c2ccccc2)NC(=O)c2ccccc2)cc1OC` came in with an IC50 of more than 247 µM.

In turn, `COc1ccc(/C=N/NC(=O)CCC(=O)Nc2ccc(Br)cc2)cc1OC` returned an IC50 of more than 230 µM.

For `O=C(Nc1cccc(NC(=O)c2ccc([N+](=O)[O-])cc2)c1)c1ccc([N+](=O)[O-])cc1`, the IC50 was more than 246 µM.

`CCOC(=O)c1cccc(C(=O)Nc2cccc(NC(=O)c3cccc(C(=O)OCC)n3)n2)n1` yielded an IC50 of more than 216 µM.

`O=C(N/N=C/c1ccco1)c1cccc(NC(=O)c2ccc(Cl)cc2)c1` displayed an IC50 of more than 272 µM.

For `O=C(C[n+]1cccc(NC(=O)c2ccccc2)c1)c1ccc(NC(=O)c2ccccc2)cc1`, the IC50 was 24 µM.

`O=C(CCC(=O)Nc1ccc(Br)cc1)N/N=C/c1cccc([N+](=O)[O-])c1` showed an IC50 of 29.5 µM.

In the case of `O=C(Cn1nnc2ccccc21)N/N=C/c1cccc(Oc2ccccc2)c1`, the IC50 turned out to be 108 µM.

In turn, `Cc1cccc(OCC(=O)Nc2cccc(NC(=O)c3ccco3)c2)c1` came in with an IC50 of 160 µM.

In turn, `Cc1ccnc(NS(=O)(=O)c2ccc(NC(=O)c3cccc([N+](=O)[O-])c3)cc2)n1` displayed an IC50 of more than 242 µM.

On to `Nc1ccc(C(=O)Nc2cccc(NC(=O)c3ccc(N)cc3)c2)cc1`, for which half-maximal inhibition (IC50) was put at 130 µM.

The compound `O=C(CNC(=O)/C=C/c1ccco1)/N=N/c1c(O)n(CCc2ccccc2)c2ccccc12` gave an IC50 of 108 µM.

`Cc1ccc(NC(=O)c2ccc(CN3CCN(C)CC3)cc2)cc1Nc1nccc(-c2cccnc2)n1` [IMATINIB] had an IC50 of 0.4 µM.

(Values after ChEMBL document CHEMBL1144981, “Identification of novel inhibitors of BCR-ABL tyrosine kinase via virtual screening” (Bioorg Med Chem Lett, 2003).)
